Experimental data from article PMC9392260 (Journal of Inflammation Research, 2022).
Where two headings read alike, the source gives them in different places.

Legend:
Type in all cases: biochemical
COX-2 [1] = target: T1, COX-2 (Homo sapiens, UniProt P35354); experiment: fluorescent COX-2 inhibitor screening kit
T1 sequence (P35354 18-604): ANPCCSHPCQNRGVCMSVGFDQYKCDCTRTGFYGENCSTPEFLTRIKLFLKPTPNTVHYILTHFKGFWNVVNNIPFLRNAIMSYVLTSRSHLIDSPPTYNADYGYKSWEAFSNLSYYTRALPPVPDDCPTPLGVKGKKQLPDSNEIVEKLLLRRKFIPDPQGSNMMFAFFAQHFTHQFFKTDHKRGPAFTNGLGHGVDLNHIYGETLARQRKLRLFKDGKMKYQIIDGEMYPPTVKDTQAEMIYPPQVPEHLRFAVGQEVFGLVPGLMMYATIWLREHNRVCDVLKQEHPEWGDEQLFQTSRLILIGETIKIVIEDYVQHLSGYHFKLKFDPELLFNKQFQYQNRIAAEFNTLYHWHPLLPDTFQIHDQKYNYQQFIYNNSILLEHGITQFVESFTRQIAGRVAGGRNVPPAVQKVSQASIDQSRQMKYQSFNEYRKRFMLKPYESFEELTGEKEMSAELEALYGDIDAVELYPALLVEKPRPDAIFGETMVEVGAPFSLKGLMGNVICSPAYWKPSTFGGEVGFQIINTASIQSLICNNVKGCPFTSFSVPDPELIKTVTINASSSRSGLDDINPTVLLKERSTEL

COX-2 [2] = target: T1, COX-2; experiment: fluorescent COX-2 inhibitor screening kit; remark: listed apart in the source
ACE2 = ACE2 (Homo sapiens, UniProt Q9BYF1); experiment: fluorescent ACE2 inhibitor screening kit
Chain of ACE2 (Q9BYF1 18-805): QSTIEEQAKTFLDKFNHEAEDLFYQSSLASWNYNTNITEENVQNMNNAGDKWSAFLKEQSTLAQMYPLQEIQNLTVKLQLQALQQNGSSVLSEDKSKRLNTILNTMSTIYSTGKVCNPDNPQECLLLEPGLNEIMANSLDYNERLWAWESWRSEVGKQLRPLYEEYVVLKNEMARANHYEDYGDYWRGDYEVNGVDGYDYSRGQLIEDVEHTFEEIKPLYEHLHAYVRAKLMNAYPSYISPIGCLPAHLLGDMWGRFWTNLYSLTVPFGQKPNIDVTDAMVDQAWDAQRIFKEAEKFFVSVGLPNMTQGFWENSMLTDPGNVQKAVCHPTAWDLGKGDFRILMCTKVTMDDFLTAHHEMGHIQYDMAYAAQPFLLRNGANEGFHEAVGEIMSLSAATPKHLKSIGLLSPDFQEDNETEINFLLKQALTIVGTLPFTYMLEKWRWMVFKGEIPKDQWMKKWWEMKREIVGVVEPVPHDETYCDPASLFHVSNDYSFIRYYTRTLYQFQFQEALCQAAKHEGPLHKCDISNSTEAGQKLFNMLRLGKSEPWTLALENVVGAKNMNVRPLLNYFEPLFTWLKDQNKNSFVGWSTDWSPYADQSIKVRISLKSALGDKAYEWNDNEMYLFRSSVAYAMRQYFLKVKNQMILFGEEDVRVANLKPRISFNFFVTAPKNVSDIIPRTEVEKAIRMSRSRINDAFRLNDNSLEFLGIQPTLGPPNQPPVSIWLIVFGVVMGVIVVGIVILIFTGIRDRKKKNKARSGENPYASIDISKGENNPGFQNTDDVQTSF

O=c1c(O)c(-c2ccc(O)cc2)oc2cc(O)cc(O)c12 [compound 11, Kaempferol]
IC50 (COX-2 [1]): 360 ± 20 nM

COc1cc([C@@H]2c3cc4c(cc3[C@H](O)[C@H]3COC(=O)[C@H]23)OCO4)cc(OC)c1OC [compound 12, Podophyllotoxin]
IC50 (COX-2 [2]): 10.5 ± 0.61 µM

O=c1c(O[C@@H]2O[C@H](CO)[C@@H](O)[C@H](O)[C@H]2O)c(-c2ccc(O)c(O)c2)oc2cc(O)cc(O)c12 [compound 5, Quercetin 3-O-glucoside]
IC50 (ACE2): 135 ± 6.54 µM
